Assays:
human MR = biological target: T1, human MR (Homo sapiens, UniProt P08235); assay: Mineralocorticoid Receptor Binding Assay (Method 1); details: [3H]-aldosterone
T1 construct: The full length human MR gene is cloned from a human kidney or human brain cDNA library; made in house; host or cells: SF9 insect cells (baculovirus)
T1 sequence (P08235 1-984): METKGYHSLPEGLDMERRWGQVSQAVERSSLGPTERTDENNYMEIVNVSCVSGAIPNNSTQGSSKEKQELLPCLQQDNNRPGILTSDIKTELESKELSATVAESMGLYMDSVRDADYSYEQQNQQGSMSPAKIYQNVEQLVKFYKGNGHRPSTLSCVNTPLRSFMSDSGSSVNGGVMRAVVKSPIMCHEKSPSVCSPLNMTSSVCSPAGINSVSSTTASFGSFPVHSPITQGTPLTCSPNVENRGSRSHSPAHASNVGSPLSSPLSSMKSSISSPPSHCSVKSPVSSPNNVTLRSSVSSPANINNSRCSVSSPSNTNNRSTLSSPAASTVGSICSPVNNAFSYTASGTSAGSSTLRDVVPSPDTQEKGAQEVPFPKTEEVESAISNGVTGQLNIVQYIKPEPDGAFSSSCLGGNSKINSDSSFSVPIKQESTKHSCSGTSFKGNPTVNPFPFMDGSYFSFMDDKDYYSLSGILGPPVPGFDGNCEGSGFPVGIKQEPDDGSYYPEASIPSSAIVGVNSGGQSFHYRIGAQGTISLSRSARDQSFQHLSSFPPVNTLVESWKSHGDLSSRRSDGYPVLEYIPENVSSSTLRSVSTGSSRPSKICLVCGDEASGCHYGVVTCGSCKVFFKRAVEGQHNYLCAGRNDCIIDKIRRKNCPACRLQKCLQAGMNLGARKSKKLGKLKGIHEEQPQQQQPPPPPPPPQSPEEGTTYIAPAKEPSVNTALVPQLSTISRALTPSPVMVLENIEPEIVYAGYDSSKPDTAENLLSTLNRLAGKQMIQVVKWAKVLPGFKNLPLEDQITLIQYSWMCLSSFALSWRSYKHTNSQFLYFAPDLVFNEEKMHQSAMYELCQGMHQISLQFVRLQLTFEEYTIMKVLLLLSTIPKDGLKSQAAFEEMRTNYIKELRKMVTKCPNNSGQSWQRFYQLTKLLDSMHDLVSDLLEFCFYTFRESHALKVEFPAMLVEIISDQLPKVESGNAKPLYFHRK
Description: The full length human MR gene is cloned from a human kidney or human brain cDNA library. Briefly, using synthetic oligonucleotide primers (Eli Lilly and Company, Indianapolis) directed to nucleotides 20-54 and 3700-3666 of the human MR, polymerase chain reaction (PCR) is performed under standard conditions using a human cDNA library. The PCR reaction is performed in a final volume of 50 μl containing about 1 μl of a 50× stock solution of polymerase; about 1 μl of a 50× stock solution of DNTP; about 5 μl of an appropriate PCR buffer; about 1 μl of each primer; about 5 μl of a H. kidney or H. brain cDNA library; and about 36 μl of water. The reaction is allowed to denature for about 30 seconds at 95 degrees Celsius, anneal for about 30 seconds at 55 degrees Celsius, and extend for about 5 minutes at 72 degrees Celsius, the sequence being repeated for a total of about 35 cycles. The desired PCR product (3.68 Kb) is confirmed by gel electrophoresis and subsequently cut from the gel and stored at about −20 degrees Celsius until extraction. To extract the cDNA product from the agarose gel, the QIAEX II Gel Extraction protocol (QIAGEN, Inc.) is employed according to the manufacturer's instructions. Following extraction, the MR cDNA is cloned into an appropriate cloning vector (Zero Blunt TOPO PCR Cloning Kit (Invitrogen, Inc.) and a pAcHLT-baculovirus transfer vector (B.D./Pharminogen), then expressed in SF9 insect cells, essentially according to manufacturer's instructions. Sf9 cells are grown at a scale where gram quantity cell pellets are obtained for subsequent use in the MR binding assay. Harvested cell pellets are lysed by repeated freeze-thaw cycles (about 4) in a suitable lysis buffer then centrifuged at about 1×10^3 G (with the supernatant being saved for future assays).
MR binding assays are performed in a final total volume of about 250 μl containing about 20-25 μg of protein and 0.5 nM of [^3H]-aldosterone plus varying concentrations of test compound or vehicle. The assay binding buffer consists of 30 mM sodium molybdate, 30 mM of TRIS-HCl, 5 mM sodium phosphate, 5 mM sodium pyrophosphate, and about 10% glycerol, pH=7.5.
Briefly, assays are prepared at RT in 96-well Falcon 3072 plates, each well containing 210 μl of binding buffer, 10 μl of [^3H]-aldosterone, 10 μl of test compound/vehicle, and 20 μl of the resuspended receptor protein extract. Incubations are carried out at 4 degrees Celsius with shaking for about 16 hours. 200 μl aliquots of each incubation are filtered onto Millipore HA 0.45 micron 96-well filter plates, pre-moistened with cold 30 mM TRIS-HCl. The filter plates are suctioned dry with vacuum and immediately washed 3× with cold 30 mM TRIS-HCl. The plates are then punched out and the amount of receptor-ligand complex is determined by liquid scintillation counting using 4 ml of Ready Protein Plus™ liquid scintillation cocktail.

glucocorticoid receptor = biological target: T2, glucocorticoid receptor (Homo sapiens, UniProt P04150); assay: Glucocorticoid Receptor Binding Assay (Method 1); details: A549 cell extract, [3H]-dexamethasone, read-out: GR Ki
T2 construct: containing 50-200 ug of A549 cell extract and 1.86 nM [^3H]-dexamethasone; host or cells: A549 human lung epithelial cells
T2 sequence (P04150 1-777): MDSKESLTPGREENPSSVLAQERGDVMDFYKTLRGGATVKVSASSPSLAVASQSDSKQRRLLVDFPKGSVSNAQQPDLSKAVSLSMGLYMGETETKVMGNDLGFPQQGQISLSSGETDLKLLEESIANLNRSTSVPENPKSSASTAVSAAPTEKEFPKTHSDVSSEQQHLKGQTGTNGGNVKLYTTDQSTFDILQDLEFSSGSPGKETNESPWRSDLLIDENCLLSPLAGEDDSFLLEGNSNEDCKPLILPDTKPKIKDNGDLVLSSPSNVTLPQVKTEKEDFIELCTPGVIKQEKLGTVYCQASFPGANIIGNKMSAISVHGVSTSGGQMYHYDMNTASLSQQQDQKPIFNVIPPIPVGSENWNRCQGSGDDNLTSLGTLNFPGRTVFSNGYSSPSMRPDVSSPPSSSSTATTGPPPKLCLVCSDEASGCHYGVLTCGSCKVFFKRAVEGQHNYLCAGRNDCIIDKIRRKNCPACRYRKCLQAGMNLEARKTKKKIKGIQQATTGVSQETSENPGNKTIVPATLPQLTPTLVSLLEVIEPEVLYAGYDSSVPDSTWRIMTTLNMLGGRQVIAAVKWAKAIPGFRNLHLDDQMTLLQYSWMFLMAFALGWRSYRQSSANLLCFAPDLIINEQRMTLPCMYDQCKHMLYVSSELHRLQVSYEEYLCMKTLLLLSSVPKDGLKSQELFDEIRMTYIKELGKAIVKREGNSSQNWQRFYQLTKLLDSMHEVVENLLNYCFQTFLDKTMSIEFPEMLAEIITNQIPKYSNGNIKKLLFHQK
Description: A549 human lung epithelial cells (ATCC) are grown at a scale where gram quantity cell pellets are obtained. Harvested cell pellets are washed twice in cold phosphate buffered saline, centrifuged, and resuspended in cold assay binding buffer. The assay binding buffer consists of 10% glycerol, 50 mM Tris-HCl (pH7.2), 75 mM sodium chloride, 1.5 mM magnesium chloride, 1.5 mM EDTA, and 10 mM sodium molybdate. Cell suspensions were lysed via sonication, centrifuged, and the “extract” supernatant is snap frozen and stored at −80 C until needed.
GR binding assays are performed in a final volume of 140 ul containing 50-200 ug of A549 cell extract and 1.86 nM [^3H]-dexamethasone (Amersham) plus varying concentrations of test compound or vehicle. Briefly, assays are prepared at RT in 96-well Fisher 3356 plates, each well containing 100 ul of A549 cell extract, 20 ul of [^3H]-dexamethasone, and 20 ul of test compound/vehicle. Incubations are carried out at 4 degrees Celsius for 16 hours. After incubation, 70 ul of 3× dextran-coated charcoal solution is added to each reaction, mixed, and incubated for 8 minutes at RT. […] 200 ul of Microscint-20 scinillant (Packard Instruments) is added to each well and amount of receptor bound radioligand is determined using Packard Instruments TopCount instrument.

[1] = in combination with standard CHF therapy, patients suffering from advanced CHF; cited from earlier work

Compound	Ki (human MR) [nM]	further results
CN(C)CCn1c(=O)[nH]c2cc(/C=C3\c4ccccc4COc4cc(F)ccc43)ccc21 [Example 6]	< 500	Ki (glucocorticoid receptor): < 10000 nM
CN1CC[C@@H](n2c(=O)[nH]c3cc(/C=C4/c5ccc(F)cc5OCc5c(F)cccc54)ccc32)C1 [Example 47]	< 500	–
O=c1[nH]c2cc(C=C3c4ccc(F)cc4CCc4cc(F)ccc43)ccc2n1CCCN1CCOCC1 [Example 48]	< 500	–
O=c1[nH]c2cc(C=C3c4ccc(F)cc4CCc4cc(F)ccc43)ccc2n1CCN1CCNCC1 [Example 49]	< 500	–
O=c1[nH]c2cc(C=C3c4ccc(F)cc4CCc4cc(F)ccc43)ccc2n1CCN1CCCC1 [Example 50]	< 500	–
CN(C)CCn1c(=O)[nH]c2cc(C=C3c4ccc(F)cc4CCc4cc(F)ccc43)ccc21 [Example 51]	< 500	–
CN1CCN(CCn2c(=O)[nH]c3cc(C=C4c5ccc(F)cc5CCc5cc(F)ccc54)ccc32)CC1 [Example 52]	< 500	–
CC(=O)S[C@@H]1CC2=CC(=O)CC[C@]2(C)[C@H]2CC[C@@]3(C)[C@@H](CC[C@@]34CCC(=O)O4)[C@H]12 [spironolactone]	–	reduced cardiac related mortality [1]: 30%; reduced frequency of hospitalization [1]: 35%

Source: US20070037788A1, “Tricyclic steroid hormone nuclear receptor modulators” (Eli Lilly and Company, priority 2003, published 2007)
